Biological target: Mitogen-activated protein kinase kinase kinase 5 (Homo sapiens) (UniProt Q99683)
Test: MAP3K5 (ASK1) binders by thermal shift, biophysical, DSF, SYPRO orange, recombinant protein (AID 515)
Conditions: at 10 µM, buffer 10 mM HEPES, pH 7.5, NaCl 150 mM, active compounds read high

Chain of Mitogen-activated protein kinase kinase kinase 5 (Homo sapiens) (Q99683 whole entry, looked up): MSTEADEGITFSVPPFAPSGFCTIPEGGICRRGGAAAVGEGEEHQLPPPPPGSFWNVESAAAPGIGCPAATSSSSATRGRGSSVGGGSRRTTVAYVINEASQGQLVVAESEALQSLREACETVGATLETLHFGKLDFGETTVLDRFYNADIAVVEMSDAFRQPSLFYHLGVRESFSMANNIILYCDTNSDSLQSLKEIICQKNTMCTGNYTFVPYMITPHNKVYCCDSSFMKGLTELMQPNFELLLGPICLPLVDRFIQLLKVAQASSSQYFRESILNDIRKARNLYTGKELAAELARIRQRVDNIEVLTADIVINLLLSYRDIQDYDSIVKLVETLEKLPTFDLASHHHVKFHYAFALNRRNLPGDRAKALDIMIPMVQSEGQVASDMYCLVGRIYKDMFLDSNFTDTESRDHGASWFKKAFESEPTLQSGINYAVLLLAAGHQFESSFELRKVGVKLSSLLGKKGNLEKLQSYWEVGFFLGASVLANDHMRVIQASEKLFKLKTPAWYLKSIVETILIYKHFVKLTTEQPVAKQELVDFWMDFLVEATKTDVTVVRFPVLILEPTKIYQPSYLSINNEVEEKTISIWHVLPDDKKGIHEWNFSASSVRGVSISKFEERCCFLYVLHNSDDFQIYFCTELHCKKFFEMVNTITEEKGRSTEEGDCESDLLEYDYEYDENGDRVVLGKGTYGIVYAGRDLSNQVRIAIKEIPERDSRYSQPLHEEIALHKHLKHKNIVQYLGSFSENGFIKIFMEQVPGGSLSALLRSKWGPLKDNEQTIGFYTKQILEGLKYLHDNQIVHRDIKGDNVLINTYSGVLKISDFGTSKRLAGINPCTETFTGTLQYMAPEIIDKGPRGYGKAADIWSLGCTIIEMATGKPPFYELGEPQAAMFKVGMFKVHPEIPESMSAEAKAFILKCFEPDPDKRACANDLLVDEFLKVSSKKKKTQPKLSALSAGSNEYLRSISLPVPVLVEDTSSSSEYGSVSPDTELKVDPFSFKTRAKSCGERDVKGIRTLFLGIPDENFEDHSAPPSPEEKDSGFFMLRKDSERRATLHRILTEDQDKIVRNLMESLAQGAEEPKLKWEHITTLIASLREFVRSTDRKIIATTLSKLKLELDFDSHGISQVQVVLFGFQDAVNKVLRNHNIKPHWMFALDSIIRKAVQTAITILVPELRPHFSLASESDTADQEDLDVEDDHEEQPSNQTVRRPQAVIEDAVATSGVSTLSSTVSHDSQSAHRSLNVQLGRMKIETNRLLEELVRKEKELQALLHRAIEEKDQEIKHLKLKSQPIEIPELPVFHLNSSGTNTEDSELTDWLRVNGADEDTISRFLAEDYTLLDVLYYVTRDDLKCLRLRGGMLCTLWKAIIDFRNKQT

O=Nc1c(-c2c(O)[nH]c3ccccc23)[nH]c2ccccc12
Tm shift: 6.1 Celsius

O=C1NCc2c1c1c3ccccc3[nH]c1c1[nH]c3ccccc3c21
Tm shift (with 50 µM L-Arg/L-Glu (1:1)): 8.53 Celsius

O=C1c2ccccc2-c2n[nH]c3cccc1c23
Tm shift (with 50 µM L-Arg/L-Glu (1:1)): 8.63 Celsius

CCN(CC)CCNC(=O)c1c(C)[nH]c(/C=C2\C(=O)Nc3ccc(Cl)cc32)c1C
Tm shift (with 50 µM L-Arg/L-Glu (1:1)): 6.43 Celsius

O=C1NC(=O)c2c1c1c3ccccc3n3c1c1c2c2ccccc2n1[C@@H]1CCC3O1
Tm shift (with 50 µM L-Arg/L-Glu (1:1)): 6.97 Celsius

NC(=O)Nc1sc(-c2ccccc2)cc1C(N)=O
Tm shift (with 50 µM L-Arg/L-Glu (1:1)): 5.94 Celsius

Cc1c2ccncc2c(C)c2c1[nH]c1ccccc12
Tm shift: 6.3 Celsius

O=c1c(O)c(-c2ccc(O)c(O)c2)oc2cc(O)cc(O)c12
Tm shift: 3.7 Celsius

O=C1Nc2ccccc2/C1=C/c1ccc[nH]1
Tm shift (with 50 µM L-Arg/L-Glu (1:1)): 5.01 Celsius

COc1ccc2c(c1)/C(=C/c1cnc[nH]1)C(=O)N2
Tm shift (with 50 µM L-Arg/L-Glu (1:1)): 5.19 Celsius

CC(C)(C)c1nc2c3cc[nH]c(=O)c3c3cc(F)ccc3c2[nH]1
Tm shift (with 50 µM L-Arg/L-Glu (1:1)): 8.26 Celsius

CC1N=C2SC=CN2C(=O)C1CCN1CCC(=C(c2ccccc2)c2ccc(F)cc2)CC1 (stereo not drawn)
Tm shift: 4.8 Celsius | Tm shift (with 50 µM L-Arg/L-Glu (1:1)): 6.07 Celsius

NC1=N/C(=C2/CCNC(=O)c3[nH]c(Br)cc32)C(=O)N1
Tm shift: 8.7 Celsius | Tm shift (with 50 µM L-Arg/L-Glu (1:1)): 12.5 Celsius

O=c1[nH]cnc2scc(-c3cccs3)c12
Tm shift: 3.7 Celsius

O=C(c1ccc(Nc2nccc(-c3cc4ccccc4s3)n2)cc1)N1CCC(N2CCCC2)CC1
Tm shift: 5.1 Celsius

O=Nc1c(-c2c(O)[nH]c3ccc(S(O)(O)O)cc23)[nH]c2ccccc12
Tm shift: 4.04 Celsius

NC1=N/C(=C2\CCNC(=O)c3[nH]ccc32)C(=O)N1
Tm shift (with 50 µM L-Arg/L-Glu (1:1)): 4.65 Celsius

O=C1Nc2ccccc2/C1=C\c1cnc[nH]1
Tm shift: 4.76 Celsius

O=Nc1c(-c2c(O)[nH]c3ccc(I)cc23)[nH]c2ccccc12
Tm shift: 5.72 Celsius

COc1cccc(N=Cc2c(O)[nH]c3ccccc23)c1
Tm shift: 3.2 Celsius

N#Cc1ccc(-c2cnc3ccc(NC4CCOCC4)nn23)cc1
Tm shift: 3.5 Celsius

O=c1c(O)c(-c2ccc(O)c(O)c2)oc2cc(O)ccc12
Tm shift (with 50 µM L-Arg/L-Glu (1:1)): 3.96 Celsius

Nc1nc(Nc2ccc(S(N)(=O)=O)cc2)nn1C(=S)Nc1c(F)cccc1F
Tm shift: 16.9 Celsius

Cc1cc(C=C2C(=O)C=CC2=O)cc(C)c1O
Tm shift (with 50 µM L-Arg/L-Glu (1:1)): 3.1 Celsius

O=Nc1c(-c2c(O)[nH]c3cc(Br)ccc23)[nH]c2ccccc12
Tm shift (with 50 µM L-Arg/L-Glu (1:1)): 8.7 Celsius

OCC(O)CCO/N=C1/C(c2c(O)[nH]c3ccccc23)=Nc2ccccc21 (stereo not drawn)
Tm shift: 5.6 Celsius

O=C(Nc1ccc(N2CCOCC2)cc1)Nc1ccc(Cl)c(Cl)c1
Tm shift: 5.7 Celsius

Cn1cc(/C=C2\C(=O)Nc3ccc(S(N)(=O)=O)cc32)c2ccccc21
Tm shift: 10 Celsius

CC(O)(O)C1(O)C[C@@H]2O[C@@]1(C)n1c3ccccc3c3c4c(c5c6ccccc6n2c5c31)C(=O)NC4 (stereo partly drawn)
Tm shift (with 50 µM L-Arg/L-Glu (1:1)): 14.1 Celsius

CCOc1c(Br)ccc2c1sc1nc[nH]c(=O)c12
Tm shift: 3.9 Celsius

Cc1ccc2c(c1)=C(c1[nH]c(=S)[nH]c1O)C(=O)N=2
Tm shift: 4.5 Celsius

— PubChem BioAssay AID515 (SGCOxCompounds, 2006)
